Reference: PubChem BioAssay AID602351 (The Scripps Research Institute Molecular Screening Center, 2012)
Active and inactive are the calls of the source. No rule for the calls is given here.

How the values were obtained:
Experiment in all cases: mouse tissue hydrolase off-target profiling – ABPP MudPIT, LC-MS, ABHD6 analysis, in vivo study for DAGLb inhibitor project, late-stage follow-up (AID 602351)
[1] = tested on: Iah1; conditions: serine hydrolase spectral counts, stronger effect = lower value
[2] = tested on: Prepl; conditions: serine hydrolase spectral counts, stronger effect = lower value
[3] = tested on: Lpl; conditions: serine hydrolase spectral counts, stronger effect = lower value
[4] = target: Palmitoyl-protein thioesterase ABHD10, mitochondrial (Mus musculus) (UniProt Q6PE15); conditions: serine hydrolase spectral counts, stronger effect = lower value
Chain of Palmitoyl-protein thioesterase ABHD10, mitochondrial (Mus musculus) (Q6PE15 whole entry, looked up): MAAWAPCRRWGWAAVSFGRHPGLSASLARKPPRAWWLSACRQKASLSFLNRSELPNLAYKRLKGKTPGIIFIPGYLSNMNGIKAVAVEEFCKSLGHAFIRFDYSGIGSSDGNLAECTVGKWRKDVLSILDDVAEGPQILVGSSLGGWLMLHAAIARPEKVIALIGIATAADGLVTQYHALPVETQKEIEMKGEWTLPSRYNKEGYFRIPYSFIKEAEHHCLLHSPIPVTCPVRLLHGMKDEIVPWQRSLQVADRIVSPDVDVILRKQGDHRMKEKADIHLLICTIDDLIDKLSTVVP

[5] = tested on: Aoah; conditions: serine hydrolase spectral counts, stronger effect = lower value
[6] = tested on: KIAA1363; conditions: serine hydrolase spectral counts, stronger effect = lower value
[7] = tested on: Magl; conditions: serine hydrolase spectral counts, stronger effect = lower value
[8] = tested on: Acot1; conditions: serine hydrolase spectral counts, stronger effect = lower value
[9] = tested on: Pla2g15; conditions: serine hydrolase spectral counts, stronger effect = lower value
[10] = tested on: Pafah1b3; conditions: serine hydrolase spectral counts, stronger effect = lower value
[11] = tested on: Fam108b; conditions: serine hydrolase spectral counts, stronger effect = lower value
[12] = target: Acyl-protein thioesterase 1 (Mus musculus) (UniProt P97823); conditions: serine hydrolase spectral counts
Chain of Acyl-protein thioesterase 1 (Mus musculus) (P97823 whole entry, looked up): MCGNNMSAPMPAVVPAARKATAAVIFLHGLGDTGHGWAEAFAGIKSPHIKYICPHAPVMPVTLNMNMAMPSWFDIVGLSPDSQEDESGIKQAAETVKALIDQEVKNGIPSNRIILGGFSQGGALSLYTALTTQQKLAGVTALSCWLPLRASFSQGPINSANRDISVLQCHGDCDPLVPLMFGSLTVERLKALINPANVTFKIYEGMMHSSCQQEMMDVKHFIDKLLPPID

[13] = target: Monoacylglycerol lipase ABHD6 (Mus musculus) (UniProt Q8R2Y0); conditions: serine hydrolase spectral counts, stronger effect = lower value
Chain of Monoacylglycerol lipase ABHD6 (Mus musculus) (Q8R2Y0 whole entry, looked up): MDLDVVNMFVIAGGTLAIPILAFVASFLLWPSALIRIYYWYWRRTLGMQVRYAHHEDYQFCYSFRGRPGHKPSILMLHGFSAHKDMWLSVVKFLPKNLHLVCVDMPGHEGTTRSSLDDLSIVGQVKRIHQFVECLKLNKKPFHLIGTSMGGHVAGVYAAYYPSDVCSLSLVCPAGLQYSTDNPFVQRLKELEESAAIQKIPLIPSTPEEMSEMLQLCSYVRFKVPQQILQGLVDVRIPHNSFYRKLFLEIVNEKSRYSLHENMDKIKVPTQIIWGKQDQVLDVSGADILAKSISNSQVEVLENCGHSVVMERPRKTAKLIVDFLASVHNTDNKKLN

[14] = target: Diacylglycerol lipase-beta (Mus musculus) (UniProt Q91WC9); conditions: serine hydrolase spectral counts, Daglb, stronger effect = lower value
Chain of Diacylglycerol lipase-beta (Mus musculus) (Q91WC9 whole entry, looked up): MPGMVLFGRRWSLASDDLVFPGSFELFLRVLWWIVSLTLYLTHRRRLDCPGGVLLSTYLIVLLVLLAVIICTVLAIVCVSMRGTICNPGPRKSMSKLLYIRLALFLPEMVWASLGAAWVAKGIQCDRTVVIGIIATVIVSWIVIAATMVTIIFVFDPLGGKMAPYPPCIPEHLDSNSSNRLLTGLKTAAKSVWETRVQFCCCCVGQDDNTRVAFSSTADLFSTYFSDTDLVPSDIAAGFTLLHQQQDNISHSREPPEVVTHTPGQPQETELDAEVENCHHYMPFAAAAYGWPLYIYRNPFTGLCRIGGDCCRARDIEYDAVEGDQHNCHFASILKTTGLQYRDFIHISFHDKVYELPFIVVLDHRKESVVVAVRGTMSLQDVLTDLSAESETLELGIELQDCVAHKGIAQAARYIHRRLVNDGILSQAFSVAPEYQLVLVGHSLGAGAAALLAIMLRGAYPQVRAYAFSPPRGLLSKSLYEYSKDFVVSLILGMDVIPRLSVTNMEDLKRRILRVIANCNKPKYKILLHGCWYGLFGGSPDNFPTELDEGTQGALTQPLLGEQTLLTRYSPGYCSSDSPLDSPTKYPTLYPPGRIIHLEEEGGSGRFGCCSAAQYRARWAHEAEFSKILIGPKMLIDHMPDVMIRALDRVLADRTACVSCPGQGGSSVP

[15] = tested on: Prcp; conditions: serine hydrolase spectral counts, stronger effect = lower value
[16] = tested on: Gzma; conditions: serine hydrolase spectral counts, stronger effect = lower value
[17] = tested on: Pafah1b2; conditions: serine hydrolase spectral counts, stronger effect = lower value
[18] = tested on: Acot2; conditions: serine hydrolase spectral counts, stronger effect = lower value
[19] = tested on: Ppt2; conditions: serine hydrolase spectral counts, stronger effect = lower value
[20] = target: Platelet-activating factor acetylhydrolase 2, cytoplasmic (Mus musculus) (UniProt Q8VDG7); conditions: serine hydrolase spectral counts
Chain of Platelet-activating factor acetylhydrolase 2, cytoplasmic (Mus musculus) (Q8VDG7 whole entry, looked up): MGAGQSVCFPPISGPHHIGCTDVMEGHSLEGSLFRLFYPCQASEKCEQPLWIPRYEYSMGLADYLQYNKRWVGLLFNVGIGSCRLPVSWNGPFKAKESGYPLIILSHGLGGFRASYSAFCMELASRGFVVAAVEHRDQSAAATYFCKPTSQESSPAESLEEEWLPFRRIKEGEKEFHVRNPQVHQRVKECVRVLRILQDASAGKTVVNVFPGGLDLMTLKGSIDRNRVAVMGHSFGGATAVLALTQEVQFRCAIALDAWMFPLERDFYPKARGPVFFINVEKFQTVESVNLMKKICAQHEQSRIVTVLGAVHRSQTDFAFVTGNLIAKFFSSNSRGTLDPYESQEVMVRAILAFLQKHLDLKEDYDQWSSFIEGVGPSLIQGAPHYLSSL

[21] = tested on: Ctsa; conditions: serine hydrolase spectral counts, stronger effect = lower value
[22] = tested on: Dpp7; conditions: serine hydrolase spectral counts, stronger effect = lower value
[23] = tested on: Dpp8; conditions: serine hydrolase spectral counts, stronger effect = lower value
[24] = tested on: Abhd11; conditions: serine hydrolase spectral counts, stronger effect = lower value
[25] = tested on: Ctsg; conditions: serine hydrolase spectral counts, stronger effect = lower value
[26] = tested on: Tpp2; conditions: serine hydrolase spectral counts, stronger effect = lower value
[27] = target: Platelet-activating factor acetylhydrolase (Mus musculus) (UniProt Q60963); conditions: serine hydrolase spectral counts
Chain of Platelet-activating factor acetylhydrolase (Mus musculus) (Q60963 whole entry, looked up): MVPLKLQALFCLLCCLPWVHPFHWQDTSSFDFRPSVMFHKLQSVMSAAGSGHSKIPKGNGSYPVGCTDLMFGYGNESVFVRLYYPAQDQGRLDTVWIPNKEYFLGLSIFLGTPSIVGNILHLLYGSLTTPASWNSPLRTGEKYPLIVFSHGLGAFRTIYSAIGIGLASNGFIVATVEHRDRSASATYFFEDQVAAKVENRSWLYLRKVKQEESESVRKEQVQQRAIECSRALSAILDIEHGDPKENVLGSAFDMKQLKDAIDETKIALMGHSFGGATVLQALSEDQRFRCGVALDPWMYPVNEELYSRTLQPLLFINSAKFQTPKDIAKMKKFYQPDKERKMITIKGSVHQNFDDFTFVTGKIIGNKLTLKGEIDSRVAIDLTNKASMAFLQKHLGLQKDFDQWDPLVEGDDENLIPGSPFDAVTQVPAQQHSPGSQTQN

[28] = tested on: Dpp4; conditions: serine hydrolase spectral counts, stronger effect = lower value
[29] = tested on: Dpp9; conditions: serine hydrolase spectral counts, stronger effect = lower value
[30] = tested on: Pnpla7; conditions: serine hydrolase spectral counts, stronger effect = lower value
[31] = tested on: Fasn; conditions: serine hydrolase spectral counts, stronger effect = lower value
[32] = tested on: Pnpla6; conditions: serine hydrolase spectral counts, stronger effect = lower value
[33] = tested on: Elane; conditions: serine hydrolase spectral counts, stronger effect = lower value
[34] = tested on: Lipa; conditions: serine hydrolase spectral counts, stronger effect = lower value
[35] = tested on: Apeh; conditions: serine hydrolase spectral counts, stronger effect = lower value
[36] = tested on: Lipe; conditions: serine hydrolase spectral counts, stronger effect = lower value
[37] = tested on: Abhd12; conditions: serine hydrolase spectral counts, stronger effect = lower value
[38] = tested on: Lypla2; conditions: serine hydrolase spectral counts, stronger effect = lower value
[39] = significance of hydrolase inhibition

For `COc1ccc(-c2ccc(-c3cn(C(=O)N4CCCCC4c4ccccc4)nn3)cc2)cc1` (stereo unspecified), which spectral counts, test compound [1] is on record?
The spectral counts, test compound was 5.67 (inactive).

What about the p value vs vehicle [1, 39] of the same molecule?
Its p value vs vehicle is 0.442.

What about the spectral counts, test compound [2] of the same molecule?
The spectral counts, test compound was 4.33 (inactive).

What about the p value vs vehicle [2, 39] of the same molecule?
Its p value vs vehicle is 0.101.

And the spectral counts, test compound [3]?
Its spectral counts, test compound is 58.3 (inactive).

What about the p value vs vehicle [3, 39] of the same molecule?
Its p value vs vehicle is 0.211.

And the spectral counts, test compound [4]?
Its spectral counts, test compound is 13.3 (inactive).

What about the p value vs vehicle [4, 39] of the same molecule?
Its p value vs vehicle is 0.911.

What about the spectral counts, test compound [5] of the same molecule?
Its spectral counts, test compound is 14.7 (inactive).

What about the p value vs vehicle [5, 39] of the same molecule?
Its p value vs vehicle is 0.53.

What about the spectral counts, test compound [6] of the same molecule?
The spectral counts, test compound was 167 (inactive).

What about the p value vs vehicle [6, 39] of the same molecule?
The p value vs vehicle was 0.699.

And the spectral counts, test compound [7]?
The spectral counts, test compound was 18 (inactive).

And the p value vs vehicle [7, 39]?
The p value vs vehicle was 0.937.

And the spectral counts, test compound [8]?
The spectral counts, test compound was 25.7 (inactive).

What about the p value vs vehicle [8, 39] of the same molecule?
Its p value vs vehicle is 0.22.

What about the spectral counts, test compound [9] of the same molecule?
Its spectral counts, test compound is 29 (inactive).

And the p value vs vehicle [9, 39]?
Its p value vs vehicle is 0.012.

What about the spectral counts, test compound [10] of the same molecule?
The spectral counts, test compound was 21.7 (inactive).

What about the p value vs vehicle [10, 39] of the same molecule?
Its p value vs vehicle is 0.409.

And the spectral counts, test compound [11]?
The spectral counts, test compound was 13.7 (inactive).

And the p value vs vehicle [11, 39]?
Its p value vs vehicle is 0.018.

And the spectral counts, test compound ([12]; Lypla1, stronger effect = lower value)?
The spectral counts, test compound was 51.7 (inactive).

And the p value vs vehicle ([12]; Lypla1, significance of hydrolase inhibition, stronger effect = lower value)?
Its p value vs vehicle is 0.676.

And the spectral counts, test compound [13]?
The spectral counts, test compound was 0.667.

What about the p value vs vehicle [13, 39] of the same molecule?
Its p value vs vehicle is 0.006.

And the spectral counts, test compound [14]?
Its spectral counts, test compound is 13.7 (inactive).

And the p value vs vehicle [14, 39]?
Its p value vs vehicle is 0.28.

What about the spectral counts, test compound [15] of the same molecule?
The spectral counts, test compound was 99.7 (inactive).

And the p value vs vehicle [15, 39]?
The p value vs vehicle was 0.659.

And the spectral counts, test compound [16]?
Its spectral counts, test compound is 5.33 (inactive).

And the p value vs vehicle [16, 39]?
The p value vs vehicle was 0.275.

And the spectral counts, test compound [17]?
The spectral counts, test compound was 28.3 (inactive).

What about the p value vs vehicle [17, 39] of the same molecule?
Its p value vs vehicle is 0.6.

What about the spectral counts, test compound [18] of the same molecule?
The spectral counts, test compound was 41.7 (inactive).

What about the p value vs vehicle [18, 39] of the same molecule?
Its p value vs vehicle is 0.041.

And the spectral counts, test compound [19]?
Its spectral counts, test compound is 5.67 (inactive).

And the p value vs vehicle [19, 39]?
The p value vs vehicle was 0.451.

And the spectral counts, test compound ([20]; Pafah2, stronger effect = lower value)?
The spectral counts, test compound was 16 (inactive).

And the p value vs vehicle ([20]; Pafah2, significance of hydrolase inhibition, stronger effect = lower value)?
Its p value vs vehicle is 0.202.

And the spectral counts, test compound [21]?
Its spectral counts, test compound is 86.7 (inactive).

What about the p value vs vehicle [21, 39] of the same molecule?
The p value vs vehicle was 0.035.

What about the spectral counts, test compound [22] of the same molecule?
Its spectral counts, test compound is 16.3 (inactive).

And the p value vs vehicle [22, 39]?
Its p value vs vehicle is 0.826.

And the spectral counts, test compound [23]?
Its spectral counts, test compound is 31 (inactive).

And the p value vs vehicle [23, 39]?
Its p value vs vehicle is 0.639.

What about the spectral counts, test compound [24] of the same molecule?
The spectral counts, test compound was 6.67 (inactive).

What about the p value vs vehicle [24, 39] of the same molecule?
Its p value vs vehicle is 0.422.

And the spectral counts, test compound [25]?
Its spectral counts, test compound is 36.3 (inactive).

And the p value vs vehicle [25, 39]?
The p value vs vehicle was 0.101.

What about the spectral counts, test compound [26] of the same molecule?
The spectral counts, test compound was 21 (inactive).

What about the p value vs vehicle [26, 39] of the same molecule?
Its p value vs vehicle is 0.018.

What about the spectral counts, test compound ([27]; Pla2g7, stronger effect = lower value) of the same molecule?
The spectral counts, test compound was 17.7 (inactive).

What about the p value vs vehicle ([27]; Pla2g7, significance of hydrolase inhibition, stronger effect = lower value) of the same molecule?
Its p value vs vehicle is 0.115.

And the spectral counts, test compound [28]?
The spectral counts, test compound was 42 (inactive).

What about the p value vs vehicle [28, 39] of the same molecule?
The p value vs vehicle was 0.1.

What about the spectral counts, test compound [29] of the same molecule?
Its spectral counts, test compound is 62 (inactive).

What about the p value vs vehicle [29, 39] of the same molecule?
Its p value vs vehicle is 0.978.

What about the spectral counts, test compound [30] of the same molecule?
Its spectral counts, test compound is 34 (inactive).

What about the p value vs vehicle [30, 39] of the same molecule?
Its p value vs vehicle is 0.656.

And the spectral counts, test compound [31]?
The spectral counts, test compound was 75.7 (inactive).

And the p value vs vehicle [31, 39]?
Its p value vs vehicle is 0.026.

And the spectral counts, test compound [32]?
Its spectral counts, test compound is 4 (inactive).

What about the p value vs vehicle [32, 39] of the same molecule?
Its p value vs vehicle is 0.028.

And the spectral counts, test compound [33]?
Its spectral counts, test compound is 28.3 (inactive).

And the p value vs vehicle [33, 39]?
The p value vs vehicle was 0.242.

And the spectral counts, test compound [34]?
The spectral counts, test compound was 3 (inactive).

And the p value vs vehicle [34, 39]?
The p value vs vehicle was 0.482.

And the spectral counts, test compound [35]?
The spectral counts, test compound was 148 (inactive).

And the p value vs vehicle [35, 39]?
Its p value vs vehicle is 0.187.

What about the spectral counts, test compound [36] of the same molecule?
Its spectral counts, test compound is 39.7 (inactive).

What about the p value vs vehicle [36, 39] of the same molecule?
The p value vs vehicle was 0.014.

And the spectral counts, test compound [37]?
Its spectral counts, test compound is 24.3 (inactive).

What about the p value vs vehicle [37, 39] of the same molecule?
Its p value vs vehicle is 0.363.

What about the spectral counts, test compound [38] of the same molecule?
The spectral counts, test compound was 89.3 (inactive).

What about the p value vs vehicle [38, 39] of the same molecule?
Its p value vs vehicle is 0.688.
